These results are taken from patent US11332472B2, “Substituted piperidines as inhibitors of ubiquitin specific protease 7” (LES LABORATOIRES SERVIER, priority 2017, dated 2022).

In the experiment the target is T1, USP7 (Homo sapiens, UniProt Q93009, C315A).
T1 construct: 0.25 nM His-His-USP7 (aa208-560, [C315A]) was incubated with compound; His-His (N)
T1 sequence (Q93009 208-560 C315A): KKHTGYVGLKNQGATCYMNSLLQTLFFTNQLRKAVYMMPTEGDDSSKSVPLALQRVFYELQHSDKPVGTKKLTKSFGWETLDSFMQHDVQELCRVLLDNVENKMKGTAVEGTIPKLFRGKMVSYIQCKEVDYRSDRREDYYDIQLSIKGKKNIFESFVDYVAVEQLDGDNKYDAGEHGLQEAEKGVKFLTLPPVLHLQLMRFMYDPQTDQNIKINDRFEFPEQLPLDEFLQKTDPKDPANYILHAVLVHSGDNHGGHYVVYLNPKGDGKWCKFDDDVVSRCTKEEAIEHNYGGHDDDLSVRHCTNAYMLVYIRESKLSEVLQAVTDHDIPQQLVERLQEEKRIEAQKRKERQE
The experiment in a line: Inhibition of USP7 by Fluorescence Intensity (FLINT) readings, Ubiquitin-Rhodamine-110 substrate. The experiment is classed as biochemical. The following applies: 0.25 nM His-His-USP7 (aa208-560, [C315A]); compound 60 minutes at 30° C.; 500 nM Ubiquitin-Rhodamine substrate; 11-point curves. How it is done:
USP7 activity was measured using Rhodamine-110 c-terminal labelled Ubiquitin as a substrate (Viva Biosciences). Incubation with USP7 results in the release of Rhodamine-110 leading to an increase in fluorescence which can be used in the continuous measurement of USP7 activity.
The USP7 reactions were performed in a 50 μL volume, in 384 well black solid low binding plates (Corning #3575). The reaction buffer consisted of 100 mM Bicine pH 8.0, 0.01% TritonX 100, 1 mM TCEP, and 10% DMSO.
0.25 nM His-His-USP7 (aa208-560, [C315A]) was incubated with compound (final concentration 10% DMSO) for 60 minutes at 30° C. The reaction was then initiated by the addition of 500 nM Ubiquitin-Rhodamine-10 substrate and the plate read every 3 minutes for 21 minutes to measure the release of Rhodamine-110. Fluorescence Intensity (FLINT) readings were measured using a Biomek Neo plate reader (Ex. 485 nm. Em. 535 nm).
The inhibition of increasing doses of compound was expressed as a percentage reduction in kinetic rate compared to the kinetic rates established between ‘DMSO only’ and ‘total inhibition’ controls (no USP7). The inhibitory concentrations that gave a 50% reduction in kinetic rate (IC50) were determined, from 11-point dose response curves, in XL-Fit using a 4-Parameter Logistic Model (Sigmoidal Dose-Response Model).
Compound `O=C([C@@H]1CCCC[C@H]1c1ccccc1)N1CCC(O)(Cn2cnc3c(ccn3Cc3ccsc3)c2=O)CC1` (relative stereo) [Example 110, 3-[[4-hydroxy-1-(trans-2-phenylcyclohexanecarbonyl)-4-piperidyl]methyl]-7-(3-thienylmethyl)pyrrolo[2,3-d]pyrimidin-4-one] displayed a half-maximal inhibitory concentration (IC50) of 450 nM. `O=C([C@@H]1OCCO[C@@H]1c1ccccc1)N1CCC(O)(Cn2cnc3c(ccn3-c3ccccc3)c2=O)CC1` (single isomer, unassigned) [Example 5, 3-[[4-hydroxy-1-[cis-3-phenyl-1,4-dioxane-2-carbonyl]-4-piperidyl]methyl]-7-phenyl-pyrrolo[2,3-d]pyrimidin-4-one] returned an IC50 of 19400 nM.

Consider `O=C([C@@H]1OCCO[C@@H]1c1ccccc1)N1CCC(O)(Cn2cnc3c(ccn3-c3ccccc3)c2=O)CC1` (single isomer, unassigned) [Example 6, 3-[[4-hydroxy-1-[cis-3-phenyl-1,4-dioxane-2-carbonyl]-4-piperidyl]methyl]-7-phenyl-pyrrolo[2,3-d]pyrimidin-4-one], for which inhibition was half-maximal at 28000 nM (IC50). This IC50 and that of the compound before are within 1.5-fold of each other.

Compound `COc1ccc(-n2ccc3c(=O)n(CC4(O)CCN(C(=O)[C@@H]5OCCO[C@@H]5c5ccccc5)CC4)cnc32)cc1` (single isomer, unassigned) [Example 7, 3-[[4-hydroxy-1-[cis-3-phenyl-1,4-dioxane-2-carbonyl]-4-piperidyl]methyl]-7-(4 methoxyphenyl)pyrrolo[2,3-d]pyrimidin-4-one] had an IC50 of 6500 nM. The compound `COc1ccc(-n2ccc3c(=O)n(CC4(O)CCN(C(=O)[C@@H]5OCCO[C@@H]5c5ccccc5)CC4)cnc32)cc1` (single isomer, unassigned) [Example 8, 3-[[4-hydroxy-1-[cis-3-phenyl-1,4-dioxane-2-carbonyl]-4-piperidyl]methyl]-7-(4-methoxyphenyl)pyrrolo[2,3-d]pyrimidin-4-one] yielded an IC50 of 13300 nM. This IC50 is about 2-fold higher than that of the compound before. In the case of `O=C([C@@H]1CCCC[C@H]1n1cccc1)N1CCC(O)(Cn2cnc3c(ccn3-c3ccccc3)c2=O)CC1` (single isomer, unassigned) [Example 13, 3-[[4-hydroxy-1-[trans-2-pyrrol-1-ylcyclohexanecarbonyl]-4-piperidyl]methyl]-7-phenyl-pyrrolo[2,3-d]pyrimidin-4-one] it was 11100 nM; in that of `COc1ccc(-n2ccc3c(=O)n(CC4(O)CCN(C(=O)[C@@H]5CCCC[C@H]5n5cccc5)CC4)cnc32)cc1` (single isomer, unassigned) [Example 16, 3-[[4-hydroxy-1-[trans-2-pyrrol-1-ylcyclohexanecarbonyl]-4-piperidyl]methyl]-7-(4-methoxyphenyl)pyrrolo[2,3-d]pyrimidin-4-one], 2970 nM; in that of `O=C([C@@H]1CCCO[C@H]1c1ccccc1)N1CCC(O)(Cn2cnc3c(ccn3-c3ccccc3)c2=O)CC1` (single isomer, unassigned) [Example 26, 3-[[4-hydroxy-1-[trans-2-phenyltetrahydropyran-3-carbonyl]-4-piperidyl]methyl]-7-phenyl-pyrrolo[2,3-d]pyrimidin-4-one], 67 nM. The same measure for `COc1ccc(-n2ccc3c(=O)n(CC4(O)CCN(C(=O)[C@@H]5CC(F)(F)CC[C@H]5c5ccccc5)CC4)cnc32)cc1` (single isomer, unassigned) [Example 29, 3-[[1-[trans-5,5-difluoro-2-phenyl-cyclohexanecarbonyl]-4-hydroxy-4-piperidyl]methyl]-7-(4-methoxyphenyl)pyrrolo[2,3-d]pyrimidin-4-one]: 612 nM. Consider `O=C([C@@H]1CC(F)(F)CC[C@H]1c1ccccc1)N1CCC(O)(Cn2cnc3c(ccn3-c3ccccc3)c2=O)CC1` (single isomer, unassigned) [Example 31, 3-[[1-[trans-5,5-difluoro-2-phenyl-cyclohexanecarbonyl]-4-hydroxy-4-piperidyl]methyl]-7-phenyl-pyrrolo[2,3-d]pyrimidin-4-one], for which the IC50 was determined as 2760 nM. `COc1ccc(-n2ccc3c(=O)n(CC4(O)CCN(C(=O)[C@@H]5CCC(F)(F)C[C@H]5c5ccccc5)CC4)cnc32)cc1` (single isomer, unassigned) [Example 33, 3-[[1-(trans-4,4-difluoro-2-phenyl-cyclohexanecarbonyl)-4-hydroxy-4-piperidyl]methyl]-7-(4-methoxyphenyl)pyrrolo[2,3-d]pyrimidin-4-one] had an IC50 of 4670 nM. In the case of `O=C([C@@H]1CCC(F)(F)C[C@H]1c1ccccc1)N1CCC(O)(Cn2cnc3c(ccn3-c3ccccc3)c2=O)CC1` (single isomer, unassigned) [Example 35, 3-[[1-[trans-4,4-difluoro-2-phenyl-cyclohexanecarbonyl]-4-hydroxy-4-piperidyl]methyl]-7-phenyl-pyrrolo[2,3-d]pyrimidin-4-one] it was 13500 nM. In turn, `CN1C(=O)CC[C@@H](C(=O)N2CCC(O)(Cn3cnc4c(ccn4C)c3=O)CC2)[C@@H]1c1ccccc1` (single isomer, unassigned) [Example 38, 3-[[4-hydroxy-1-[trans-1-methyl-6-oxo-2-phenyl-piperidine-3-carbonyl]-4-piperidyl]methyl]-7-methyl-pyrrolo[2,3-d]pyrimidin-4-one] had an IC50 of 399 nM. In the case of `COc1ccc(-n2ccc3c(=O)n(CC4(O)CCN(C(=O)[C@@H]5CCCC[C@H]5c5ccc(F)cc5)CC4)cnc32)cc1` (single isomer, unassigned) [Example 40, 3-[[1-[trans-2-(4-fluorophenyl)cyclohexanecarbonyl]-4-hydroxy-4-piperidyl]methyl]-7-(4-methoxyphenyl)pyrrolo[2,3-d]pyrimidin-4-one] it was 883 nM. The same measure for `O=C(C1CCCCC1c1ccc(F)cc1)N1CCC(O)(Cn2cnc3c(ccn3-c3ccccc3)c2=O)CC1` (single isomer, unassigned) [Example 42, 3-[[1-[(trans-2-(4-fluorophenyl)cyclohexanecarbonyl]-4-hydroxy-4-piperidyl]methyl]-7-phenyl-pyrrolo[2,3-d]pyrimidin-4-one]: 1590 nM; for `COc1ccc(-n2ccc3c(=O)n(CC4(O)CCN(C(=O)[C@@H]5CCCO[C@H]5c5ccccc5)CC4)cnc32)cc1` (single isomer, unassigned) [Example 44, 3-[[4-hydroxy-1-[trans-2-phenyltetrahydropyran-3-carbonyl]-4-piperidyl]methyl]-7-(4-methoxyphenyl)pyrrolo[2,3-d]pyrimidin-4-one]: 2750 nM. Compound `COc1ccc(-n2ccc3c(=O)n(CC4(O)CCN(C(=O)[C@@H]5CCCO[C@H]5c5ccccc5)CC4)cnc32)cc1` (single isomer, unassigned) [Example 45, 3-[[4-hydroxy-1-[trans-2-phenyltetrahydropyran-3-carbonyl]-4-piperidyl]methyl]-7-(4-methoxyphenyl)pyrrolo[2,3-d]pyrimidin-4-one] returned an IC50 of 86 nM. In the case of `COc1ccc(-n2ccc3c(=O)n(CC4(O)CCN(C(=O)[C@@H]5CCCC[C@H]5n5ccnc5)CC4)cnc32)cc1` (single isomer, unassigned) [Example 48, 3-[[4-hydroxy-1-[trans-2-imidazol-1-ylcyclohexanecarbonyl]-4-piperidyl]methyl]-7-(4-methoxyphenyl)pyrrolo[2,3-d]pyrimidin-4-one] it was 413 nM; in that of `O=C([C@@H]1CCCC[C@H]1n1ccnc1)N1CCC(O)(Cn2cnc3c(ccn3-c3ccccc3)c2=O)CC1` (single isomer, unassigned) [Example 50, 3-[[4-hydroxy-1-[trans-2-imidazol-1-ylcyclohexanecarbonyl]-4-piperidyl]methyl]-7-phenyl-pyrrolo[2,3-d]pyrimidin-4-one], 570 nM; in that of `O=C(C1CCCC(O)C1c1ccccc1)N1CCC(O)(Cn2cnc3c(ccn3-c3ccccc3)c2=O)CC1` (single isomer, unassigned) [Example 55, (1S,2S,3R or 1R,2R,3S)-3-[[4-hydroxy-1-[3-hydroxy-2-phenyl-cyclohexanecarbonyl]-4-piperidyl]methyl]-7-phenyl-pyrrolo[2,3-d]pyrimidin-4-one], 113 nM. As to `O=C(C1CCCC(O)C1c1ccccc1)N1CCC(O)(Cn2cnc3c(ccn3-c3ccccc3)c2=O)CC1` (single isomer, unassigned) [Example 56, (1S,2S,3S or 1R,2R,3R)-3-[[4-hydroxy-1-[3-hydroxy-2-phenyl-cyclohexanecarbonyl]-4-piperidyl]methyl]-7-phenyl-pyrrolo[2,3-d]pyrimidin-4-one], half-maximal inhibition (IC50) required 2550 nM. Against the preceding compound, the IC50 is about 23-fold higher. In the case of `Cn1ccnc1[C@@H]1CCCC[C@H]1C(=O)N1CCC(O)(Cn2cnc3c(ccn3-c3ccccc3)c2=O)CC1` (single isomer, unassigned) [Example 57, 3-[[4-hydroxy-1-[trans-2-(1-methylimidazol-2-yl)cyclohexanecarbonyl]-4-piperidyl]methyl]-7-phenyl-pyrrolo[2,3-d]pyrimidin-4-one], inhibition was half-maximal at 28400 nM (IC50).
